Results from paper PMC7441158 (Nature Communications, 2020).

Biological target: T1, VIP receptor 2 (VPAC2) (Homo sapiens, UniProt P41587)
T1 sequence (P41587 24-438): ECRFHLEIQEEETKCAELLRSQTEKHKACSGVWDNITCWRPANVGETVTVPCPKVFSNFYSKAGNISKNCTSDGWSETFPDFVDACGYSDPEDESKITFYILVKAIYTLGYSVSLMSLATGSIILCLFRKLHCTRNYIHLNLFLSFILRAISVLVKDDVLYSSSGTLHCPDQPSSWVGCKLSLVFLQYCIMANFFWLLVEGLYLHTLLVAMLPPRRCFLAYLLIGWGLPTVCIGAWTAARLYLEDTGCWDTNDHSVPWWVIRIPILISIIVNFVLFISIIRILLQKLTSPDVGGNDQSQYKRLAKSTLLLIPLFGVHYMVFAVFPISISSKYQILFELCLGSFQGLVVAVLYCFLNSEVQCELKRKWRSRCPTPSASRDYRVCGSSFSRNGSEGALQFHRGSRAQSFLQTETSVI
Test: cAMP assay, COS-7 cells transiently expressing VPAC2
Assay type: cell-based
Details: for % receptor activation at 1µM agonist: VPAC2 + VIP, Suppl. fig 5a source data

For `CC[C@H](C)[C@H](NC(=O)[C@H](CO)NC(=O)[C@H](CC(N)=O)NC(=O)[C@H](CC(C)C)NC(=O)[C@H](Cc1ccc(O)cc1)NC(=O)[C@H](CCCCN)NC(=O)[C@H](CCCCN)NC(=O)[C@@H](NC(=O)[C@H](C)NC(=O)[C@H](CCSC)NC(=O)[C@H](CCC(N)=O)NC(=O)[C@H](CCCCN)NC(=O)[C@H](CCCNC(=N)N)NC(=O)[C@H](CC(C)C)NC(=O)[C@H](CCCNC(=N)N)NC(=O)[C@@H](NC(=O)[C@H](Cc1ccc(O)cc1)NC(=O)[C@H](CC(N)=O)NC(=O)[C@H](CC(=O)O)NC(=O)[C@@H](NC(=O)[C@H](Cc1ccccc1)NC(=O)[C@@H](NC(=O)[C@H](C)NC(=O)[C@H](CC(=O)O)NC(=O)[C@H](CO)NC(=O)[C@@H](N)Cc1c[nH]cn1)C(C)C)[C@@H](C)O)[C@@H](C)O)C(C)C)C(=O)N[C@@H](CC(C)C)C(=O)N[C@@H](CC(N)=O)C(N)=O` [VIP, vasoactive intestinal polypeptide, reference compound], the “Efficacy raw data for Glucagon-receptors, VPAC2 + VIP” value (from here on “Efficacy raw data”) (replicate 1) was 99.97, the “Efficacy raw data” value (replicate 2) was 100 and the “Efficacy raw data” value (replicate 3) was 100.

For `CC[C@H](C)[C@H](NC(=O)[C@H](CO)NC(=O)[C@H](CC(N)=O)NC(=O)[C@H](CC(C)C)NC(=O)[C@H](Cc1ccc(O)cc1)NC(=O)[C@H](CCCCN)NC(=O)[C@H](CCCCN)NC(=O)[C@@H](NC(=O)[C@H](C)NC(=O)[C@H](CCSC)NC(=O)[C@H](CCC(N)=O)NC(=O)[C@H](CCCCN)NC(=O)[C@H](CCCNC(=N)N)NC(=O)[C@H](CC(C)C)NC(=O)[C@H](CCCNC(=N)N)NC(=O)[C@@H](NC(=O)[C@H](Cc1ccc(O)cc1)NC(=O)[C@H](CC(N)=O)NC(=O)[C@H](CC(=O)O)NC(=O)[C@@H](NC(=O)[C@H](Cc1ccccc1)NC(=O)[C@@H](NC(=O)[C@H](C)NC(=O)[C@H](CC(=O)O)NC(=O)[C@H](CO)NC(=O)[C@@H](N)Cc1c[nH]cn1)C(C)C)[C@@H](C)O)[C@@H](C)O)C(C)C)C(=O)N[C@@H](CC(C)C)C(=O)N[C@@H](CC(N)=O)C(N)=O` [VIP non-glycosylated], the “% receptor activation at 1µM agonist” value (replicate 1) was 79.5%, the “% receptor activation at 1µM agonist” value (replicate 2) was 82.6% and the “% receptor activation at 1µM agonist” value (replicate 3) was 101.8%. The “% receptor activation at 1µM agonist” value (replicate 4) was 110.5%, the “% receptor activation at 1µM agonist” value (replicate 5) was 97.7% and the “% receptor activation at 1µM agonist” value (replicate 6) was 107.3%.
